Experimental data from ChEMBL document CHEMBL3885861, “Open TG-GATES”.

Species on record: Rattus norvegicus
Assay: Open TG-GATES - Regimen: Daily Repeat
Type: toxicity, organism-based, Sprague-Dawley
Parameters: regimen Daily Repeat, gender Male, age 6 weeks
Conditions: in vivo, po, 100 mg/kg, route gavage, dose level High; for APTT / Bas / Eos / Fbg / Hb / Ht / Lym / MCH / MCHC / MCV / Mono / Neu / PT / Plat / RBC / Ret / WBC: tissue Blood; for KIDNEY_TOTAL: tissue Kidney; for LIVER: tissue Liver; for A/G / ALP / ALT / AST / BUN / CRE / Ca / Cl / DBIL / GLC / IP / K / LDH / Na / PL / RALB / TBIL / TC / TG / TP / gamma-GTP: tissue Plasma

## CN(CCOc1ccc(CC2SC(=O)NC2=O)cc1)c1ccccn1.O=C(O)/C=C\C(=O)O (centres undefined) [ROSIGLITAZONE MALEATE]
72 h, time 3 day
  TERMINAL_BW: 241.9 g
  APTT: 16.1 s
  Bas: 0%
  Eos: 1%
  Fbg: 214 mg/dL
  Hb: 12 g/dL
  Ht: 36.4%
  Lym: 73.4%
  MCH: 21.1 pg
  MCHC: 33%
  MCV: 63.8 fL
  Mono: 7.2%
  Neu: 19.2%
  PT: 11.7 s
  Plat: 122 x10_4/uL
  RBC: 570.8 x10_4/ul
  Ret: 7.7%
  WBC: 111.2 x10_2/uL
  KIDNEY_TOTAL: 0.7 g
  LIVER: 12.3 g
  A/G: 2.5
  ALP: 1258 IU/L
  ALT: 44.4 IU/L
  AST: 74.2 IU/L
  BUN: 17.2 mg/dL
  CRE: 0.2 mg/dL
  Ca: 11.4 mg/dL
  Cl: 106.2 meq/L
  DBIL: 0.01 mg/dL
  GLC: 179.8 mg/dL
  IP: 8.1 mg/dL
  K: 4.1 meq/L
  LDH: 115.6 IU/L
  Na: 141.8 meq/L
  PL: 142.2 mg/dL
  RALB: 3.8 g/dL
  TBIL: 0.034 mg/dL
  TC: 77.6 mg/dL
  TG: 48 mg/dL
  TP: 5.4 g/dL
  gamma-GTP: 0 IU/L
[…], time 7 day
  TERMINAL_BW: 286.2 g
  APTT: 16.1 s
  Bas: 0%
  Eos: 1.2%
  Fbg: 195.8 mg/dL
  Hb: 11.6 g/dL
  Ht: 35.3%
  Lym: 74.6%
  MCH: 21.8 pg
  MCHC: 32.8%
  MCV: 66.4 fL
  Mono: 9.2%
  Neu: 15.4%
  PT: 12.2 s
  Plat: 111.4 x10_4/uL
  RBC: 530.8 x10_4/ul
  Ret: 7.7%
  WBC: 99 x10_2/uL
  KIDNEY_TOTAL: 0.8 g
  LIVER: 14.7 g
  A/G: 2.3
  ALP: 1176 IU/L
  ALT: 33 IU/L
  AST: 67.6 IU/L
  BUN: 20.8 mg/dL
  CRE: 0.5 mg/dL
  Ca: 11 mg/dL
  Cl: 105.6 meq/L
  DBIL: 0.014 mg/dL
  GLC: 178.8 mg/dL
  IP: 7.5 mg/dL
  K: 4 meq/L
  LDH: 77 IU/L
  Na: 142 meq/L
  PL: 135.4 mg/dL
  RALB: 3.8 g/dL
  TBIL: 0.034 mg/dL
  TC: 73.8 mg/dL
  TG: 43.4 mg/dL
  TP: 5.4 g/dL
  gamma-GTP: 0.4 IU/L
[…], time 14 day
  TERMINAL_BW: 351.2 g
  APTT: 16.1 s
  Bas: 0%
  Eos: 1%
  Fbg: 227 mg/dL
  Hb: 12.8 g/dL
  Ht: 38.9%
  Lym: 70.8%
  MCH: 20.8 pg
  MCHC: 32.8%
  MCV: 63.4 fL
  Mono: 10.4%
  Neu: 17.6%
  PT: 12 s
  Plat: 94.8 x10_4/uL
  RBC: 614.6 x10_4/ul
  Ret: 4.9%
  WBC: 108.6 x10_2/uL
  KIDNEY_TOTAL: 0.9 g
  LIVER: 16.3 g
  A/G: 2
  ALP: 1156 IU/L
  ALT: 36 IU/L
  AST: 68.2 IU/L
  BUN: 18.2 mg/dL
  CRE: 0.4 mg/dL
  Ca: 11 mg/dL
  Cl: 107.6 meq/L
  DBIL: 0.01 mg/dL
  GLC: 190.4 mg/dL
  IP: 7.4 mg/dL
  K: 3.8 meq/L
  LDH: 87.2 IU/L
  Na: 145.8 meq/L
  PL: 120 mg/dL
  RALB: 3.7 g/dL
  TBIL: 0.028 mg/dL
  TC: 69.4 mg/dL
  TG: 38.8 mg/dL
  TP: 5.5 g/dL
  gamma-GTP: 1 IU/L
[…], time 28 day
  TERMINAL_BW: 428.4 g
  APTT: 16.1 s
  Bas: 0%
  Eos: 1.2%
  Fbg: 220.8 mg/dL
  Hb: 12.9 g/dL
  Ht: 39.5%
  Lym: 77.4%
  MCH: 19.6 pg
  MCHC: 32.6%
  MCV: 60.2 fL
  Mono: 7.8%
  Neu: 13.4%
  PT: 12.1 s
  Plat: 87.6 x10_4/uL
  RBC: 657.8 x10_4/ul
  Ret: 3.2%
  WBC: 104 x10_2/uL
  KIDNEY_TOTAL: 0.9 g
  LIVER: 18.6 g
  A/G: 2.1
  ALP: 951 IU/L
  ALT: 29 IU/L
  AST: 59.2 IU/L
  BUN: 18.6 mg/dL
  CRE: 0.4 mg/dL
  Ca: 11 mg/dL
  Cl: 105 meq/L
  DBIL: 0.01 mg/dL
  GLC: 179.6 mg/dL
  IP: 6.2 mg/dL
  K: 3.9 meq/L
  LDH: 88.4 IU/L
  Na: 141.2 meq/L
  PL: 123.2 mg/dL
  RALB: 3.9 g/dL
  TBIL: 0.04 mg/dL
  TC: 74.8 mg/dL
  TG: 37.8 mg/dL
  TP: 5.8 g/dL
  gamma-GTP: 0 IU/L
